Measured values reported in PubChem BioAssay (NCI).
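1) Cells in 96-well plates. 2) Compound, 48 h, 5 concentrations. 3) Linear interpolation between surrounding doses. 4) Unreached endpoint = highest concentration. Definition used: TGI = concentration required for complete inhibition of growth.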

Columns and labels:
Test in all cases: inhibition of tumour cell growth, NCI panel, 48 h
SR leukemia = system: SR leukemia
CCRF-CEM leukemia = system: CCRF-CEM leukemia
SNB-75 CNS = system: SNB-75 CNS
MDA-MB-435 = system: MDA-MB-435
HS 578T breast = system: HS 578T breast
OVCAR-3 ovarian = system: OVCAR-3 ovarian
HL-60(TB) leukemia = system: HL-60(TB) leukemia
HOP-92 NSCLC = system: HOP-92 NSCLC
NCI-H23 lung = system: NCI-H23 lung
A549 NSCLC = system: A549 NSCLC
HCT-116 colon = system: HCT-116 colon
OVCAR-5 ovarian = system: OVCAR-5 ovarian
HCT-15 colon = system: HCT-15 colon
SK-MEL-28 melanoma = system: SK-MEL-28 melanoma
BT-549 breast = system: BT-549 breast
HOP-62 NSCLC = system: HOP-62 NSCLC
SK-MEL-2 melanoma = system: SK-MEL-2 melanoma
A498 renal = system: A498 renal
NCI-H226 lung = system: NCI-H226 lung
SF-539 CNS = system: SF-539 CNS
TK-10 renal = system: TK-10 renal
IGROV1 ovarian = system: IGROV1 ovarian
MDA-MB-231 breast = system: MDA-MB-231 breast
PC-3 prostate = system: PC-3 prostate
COLO 205 colon = system: COLO 205 colon
NCI-H460 lung = system: NCI-H460 lung
SN12C renal = system: SN12C renal
K-562 leukemia = system: K-562 leukemia
T-47D breast = system: T-47D breast
U251 CNS = system: U251 CNS
OVCAR-4 ovarian = system: OVCAR-4 ovarian
UACC-62 melanoma = system: UACC-62 melanoma
UO-31 renal = system: UO-31 renal
M14 melanoma = system: M14 melanoma
SNB-19 CNS = system: SNB-19 CNS
SW-620 colon = system: SW-620 colon
SK-OV-3 ovarian = system: SK-OV-3 ovarian
MOLT-4 leukemia = system: MOLT-4 leukemia
CAKI-1 renal = system: CAKI-1 renal
SF-295 CNS = system: SF-295 CNS
786-0 renal = system: 786-0 renal
LOX IMVI melanoma = system: LOX IMVI melanoma
HCC-2998 colon = system: HCC-2998 colon
MCF7 breast = system: MCF7 breast
SF-268 CNS = system: SF-268 CNS
UACC-257 melanoma = system: UACC-257 melanoma
RPMI-8226 leukemia = system: RPMI-8226 leukemia
MDA-N = system: MDA-N
DU-145 prostate = system: DU-145 prostate
KM12 colon = system: KM12 colon
NCI/ADR-RES ovarian = system: NCI/ADR-RES ovarian
HT29 colon = system: HT29 colon
EKVX NSCLC = system: EKVX NSCLC
RXF 393 renal = system: RXF 393 renal
ACHN renal = system: ACHN renal
SK-MEL-5 melanoma = system: SK-MEL-5 melanoma
NCI-H522 lung = system: NCI-H522 lung
OVCAR-8 ovarian = system: OVCAR-8 ovarian
MALME-3M melanoma = system: MALME-3M melanoma

For `NC(N)=NCCCC(NC(=O)OCCCCCCn1ccc(N)nc1=O)C(=O)O` (configuration not stated), the TGI (SR leukemia) was over 100 µM, the TGI (CCRF-CEM leukemia) was over 100 µM and the TGI (SNB-75 CNS) was over 100 µM. The TGI (MDA-MB-435) was over 100 µM, the TGI (HS 578T breast) was over 100 µM and the TGI (OVCAR-3 ovarian) was over 100 µM. It also gave a TGI (HL-60(TB) leukemia) of over 100 µM, a TGI (HOP-92 NSCLC) of over 100 µM and a TGI (NCI-H23 lung) of over 100 µM. The TGI (A549 NSCLC) was over 100 µM, the TGI (HCT-116 colon) was over 100 µM and the TGI (OVCAR-5 ovarian) was over 100 µM. The TGI (HCT-15 colon) was over 100 µM, the TGI (SK-MEL-28 melanoma) was over 100 µM and the TGI (BT-549 breast) was over 100 µM. For the same compound, the TGI (HOP-62 NSCLC) was over 100 µM, the TGI (SK-MEL-2 melanoma) was over 100 µM and the TGI (A498 renal) was over 100 µM. It also gave a TGI (NCI-H226 lung) of 33.6 µM, a TGI (SF-539 CNS) of over 100 µM and a TGI (TK-10 renal) of over 100 µM. It also gave a TGI (IGROV1 ovarian) of over 100 µM, a TGI (MDA-MB-231 breast) of over 100 µM and a TGI (PC-3 prostate) of over 100 µM. It also gave a TGI (COLO 205 colon) of over 100 µM, a TGI (NCI-H460 lung) of over 100 µM and a TGI (SN12C renal) of over 100 µM. For the same compound, the TGI (K-562 leukemia) was over 100 µM, the TGI (T-47D breast) was over 100 µM and the TGI (U251 CNS) was over 100 µM. For the same compound, the TGI (OVCAR-4 ovarian) was over 100 µM, the TGI (UACC-62 melanoma) was over 100 µM and the TGI (UO-31 renal) was over 100 µM. For the same compound, the TGI (M14 melanoma) was over 100 µM, the TGI (SNB-19 CNS) was over 100 µM and the TGI (SW-620 colon) was over 100 µM. The TGI (SK-OV-3 ovarian) was over 100 µM, the TGI (MOLT-4 leukemia) was over 100 µM and the TGI (CAKI-1 renal) was over 100 µM. The TGI (SF-295 CNS) was over 100 µM, the TGI (786-0 renal) was over 100 µM and the TGI (LOX IMVI melanoma) was over 100 µM. The TGI (HCC-2998 colon) was over 100 µM, the TGI (MCF7 breast) was over 100 µM and the TGI (SF-268 CNS) was over 100 µM. For the same compound, the TGI (UACC-257 melanoma) was over 100 µM, the TGI (RPMI-8226 leukemia) was over 100 µM and the TGI (MDA-N) was over 100 µM. It also gave a TGI (DU-145 prostate) of over 100 µM, a TGI (KM12 colon) of over 100 µM and a TGI (NCI/ADR-RES ovarian) of over 100 µM. The TGI (HT29 colon) was over 100 µM, the TGI (EKVX NSCLC) was over 100 µM and the TGI (RXF 393 renal) was over 100 µM. For the same compound, the TGI (ACHN renal) was over 100 µM.
With `CC1OC(OC2C(O)COC(OC3C(C)OC(OC4C(OC(=O)[C@]56CCC(C)(C)C[C@@H]5C5=CCC7[C@@]8(C)C[C@H](O)[C@H](OC9OC(CO)C(O)C(OC%10OC(CO)C(O)C(O)C%10O)C9O)[C@@](C)(CO)[C@@H]8CC[C@@]7(C)[C@]5(C)CC6)OCC(O)C4O)C(O)C3O)C2O)C(O)C(O)C1O` (some centres not stated) the TGI (SR leukemia) was 25.8 µM, the TGI (CCRF-CEM leukemia) was 32.6 µM and the TGI (SNB-75 CNS) was 35 µM. It also gave a TGI (MDA-MB-435) of 42.1 µM, a TGI (HS 578T breast) of 40.9 µM and a TGI (OVCAR-3 ovarian) of 29.4 µM. It also gave a TGI (HOP-92 NSCLC) of 38.4 µM, a TGI (NCI-H23 lung) of 31 µM and a TGI (A549 NSCLC) of 28.6 µM. For the same compound, the TGI (HCT-116 colon) was 32.7 µM, the TGI (SK-MEL-5 melanoma) was 30.3 µM and the TGI (OVCAR-5 ovarian) was 27 µM. For the same compound, the TGI (HCT-15 colon) was 38.7 µM, the TGI (SK-MEL-28 melanoma) was 22.9 µM and the TGI (BT-549 breast) was 40.7 µM. For the same compound, the TGI (HOP-62 NSCLC) was 28.8 µM, the TGI (SK-MEL-2 melanoma) was 36 µM and the TGI (A498 renal) was 26 µM. For the same compound, the TGI (NCI-H522 lung) was 31.4 µM, the TGI (NCI-H226 lung) was 42.9 µM and the TGI (OVCAR-8 ovarian) was 32.8 µM. The TGI (SF-539 CNS) was 34.4 µM, the TGI (TK-10 renal) was 34.2 µM and the TGI (MDA-MB-231 breast) was 31.2 µM. For the same compound, the TGI (PC-3 prostate) was 23.9 µM, the TGI (COLO 205 colon) was 18.1 µM and the TGI (NCI-H460 lung) was 40.2 µM. It also gave a TGI (SN12C renal) of 25.2 µM, a TGI (K-562 leukemia) of over 100 µM and a TGI (T-47D breast) of 35.5 µM. The TGI (U251 CNS) was 32.8 µM, the TGI (OVCAR-4 ovarian) was 34.4 µM and the TGI (UACC-62 melanoma) was 39.8 µM. It also gave a TGI (UO-31 renal) of 16 µM, a TGI (M14 melanoma) of 26.3 µM and a TGI (SNB-19 CNS) of 30.4 µM. It also gave a TGI (SW-620 colon) of 30.4 µM, a TGI (SK-OV-3 ovarian) of 30.3 µM and a TGI (MOLT-4 leukemia) of 36.5 µM. It also gave a TGI (CAKI-1 renal) of 19.1 µM, a TGI (SF-295 CNS) of 28.4 µM and a TGI (786-0 renal) of 30 µM. For the same compound, the TGI (LOX IMVI melanoma) was 35 µM, the TGI (HCC-2998 colon) was 32.9 µM and the TGI (MCF7 breast) was 36.1 µM. For the same compound, the TGI (SF-268 CNS) was 39.7 µM, the TGI (UACC-257 melanoma) was 35.6 µM and the TGI (RPMI-8226 leukemia) was 51.8 µM. It also gave a TGI (MDA-N) of 32 µM, a TGI (DU-145 prostate) of 29 µM and a TGI (KM12 colon) of 55.2 µM. It also gave a TGI (MALME-3M melanoma) of 30.8 µM, a TGI (NCI/ADR-RES ovarian) of 31.9 µM and a TGI (HT29 colon) of 31.5 µM. The TGI (EKVX NSCLC) was 26.1 µM, the TGI (RXF 393 renal) was 27.9 µM and the TGI (ACHN renal) was 34.5 µM.
